Measured values as given in ChEMBL document CHEMBL1126465, “Synthesis and pharmacological evaluation of nonacyclic and trisdecacyclic pyrazines related to cephalostatin” (1992).
≈ marks a conversion by molar mass, not a printed value.

Tests used:
A549 [1] = assay: In vitro cytotoxicity against human lung carcinoma cell line A-549; assay type: functional; conditions: read-out: ED50 (the source's name)
MCF7 [2] = assay: In vitro cytotoxicity against human breast carcinoma cell line MCF-7; assay type: functional; conditions: read-out: ED50 (the source's name)
Malme-3M [3] = assay: In vitro cytotoxicity against human melanoma, metastatic to lung using MTT assay (MALME-3M); assay type: functional; conditions: read-out: ED50 (the source's name)
SK-MEL-5 [4] = assay: In vitro cytotoxicity against human melanoma, metastatic to auxiliary node (SK-MEL-5); assay type: functional; conditions: read-out: ED50 (the source's name)
HT-29 [5] = assay: In vitro cytotoxicity against human colon adenocarcinoma cell line HT-29; assay type: functional; conditions: read-out: ED50 (the source's name)
A549 [6] = assay: In vitro cytotoxicity against human lung carcinoma cell line A-549 at 3.6*10e-5 M; assay type: functional; conditions: A549, read-out: ED50
HT-29 [7] = assay: In vitro cytotoxicity against human colon adenocarcinoma cell line HT-29 at 5.7*10e-5M; assay type: functional; conditions: HT-29, read-out: ED50
MCF7 [8] = assay: In vitro cytotoxicity against human breast carcinoma cell line MCF-7 at 4.4*10e-5M; assay type: functional; conditions: MCF7, read-out: ED50
SK-MEL-5 [9] = assay: In vitro cytotoxicity against human melanoma, metastatic to auxiliary node (SK-MEL-5) at 5.1*10e-5M; assay type: functional; conditions: SK-MEL-5, read-out: ED50
Malme-3M [10] = assay: In vitro cytotoxicity against human melanoma, metastatic to lung using MTT assay (MALME-3M) at 6.8*10e-5M; assay type: functional
HT-29 [11] = assay: In vitro cytotoxicity against human colon adenocarcinoma cell line HT-29 at 3.0*10e-5 M; assay type: functional; conditions: read-out: ED50 (the source's name)
Malme-3M [12] = assay: In vitro cytotoxicity against human melanoma, metastatic to lung using MTT assay (MALME-3M) at 5.5*10e-5M; assay type: functional; conditions: read-out: ED50 (the source's name)
SK-MEL-5 [13] = assay: In vitro cytotoxicity against human melanoma, metastatic to auxiliary node (SK-MEL-5) at 3.2*10e-5M; assay type: functional; conditions: read-out: ED50 (the source's name)
A549 [14] = assay: In vitro cytotoxicity against human lung carcinoma cell line A-549 at 6.1*10e-5 M; assay type: functional; conditions: read-out: ED50 (the source's name)
NRK [15] = assay: In vitro cytotoxicity expressed as % cell kill against rat transformed cell line H/1/2-NRK at a dose of 3.3 uM; assay type: functional
NRK [16] = assay: In vitro cytotoxicity expressed as % cell kill against rat transformed cell line H/1/2-NRK at a dose of 33 uM; assay type: functional
HT-29 [17] = assay: In vitro cytotoxicity against human colon adenocarcinoma cell line HT-29 at 1.2*10e-5M; assay type: functional; conditions: read-out: ED50 (the source's name)
NRK [18] = assay: In vitro cytotoxicity expressed as % cell kill against rat transformed cell line K/1-NRK at a dose of 3.3 uM; assay type: functional
NRK [19] = assay: In vitro cytotoxicity expressed as % cell kill against ras transformed cell line K/1-NRK at a dose of 33 uM; assay type: functional, Rattus norvegicus
MCF7 [20] = assay: In vitro cytotoxicity against human breast carcinoma cell line MCF-7 at 4.9*10e-5M; assay type: functional; conditions: read-out: ED50 (the source's name)
Mus musculus [21] = assay: Percent inhibition was determined against H/1/2-NRK tumor at a dose of 150 mg/kg/day in mice; assay type: functional
Mus musculus [22] = assay: Percent inhibition was determined against K/1-NRK tumor at a dose of 150 mg/kg/day in mice; assay type: functional
Mus musculus [23] = assay: Percent inhibition was determined against K/1-NRK tumor at a dose of 75 mg/kg/day in mice; assay type: functional
Mus musculus [24] = organism: Mus musculus; assay: Maximum tolerated dose (MTD) was reported; assay type: functional
NRKE [25] = assay: In vitro cytotoxicity expressed as % cell kill against normal rat kidney epithelial cell (NRKE) at a dose of 3.3 uM; assay type: functional
NRKE [26] = assay: In vitro cytotoxicity expressed as % cell kill against normal rat kidney epithelial cell (NRKE) at a dose of 33 uM; assay type: functional
SK-MEL-5 [27] = assay: In vitro cytotoxicity against human melanoma, metastatic to auxiliary node (SK-MEL-5) at 6.3*10e-5M; assay type: functional; conditions: read-out: ED50 (the source's name)
A549 [28] = assay: In vitro cytotoxicity against human lung carcinoma cell line A-549 at 7.4*10e-5 M; assay type: functional; conditions: read-out: ED50 (the source's name)
HT-29 [29] = assay: In vitro cytotoxicity against human colon adenocarcinoma cell line HT-29 at 1.6*10e-5M; assay type: functional; conditions: read-out: ED50 (the source's name)
MCF7 [30] = assay: In vitro cytotoxicity against human breast carcinoma cell line MCF-7 at 8.1*10e-5M; assay type: functional; conditions: read-out: ED50 (the source's name)
A549 [31] = assay: In vitro cytotoxicity against human lung carcinoma cell line A-549 at 5.0*10e-5M; assay type: functional; conditions: read-out: ED50 (the source's name)
HT-29 [32] = assay: In vitro cytotoxicity against human colon adenocarcinoma cell line HT-29 at 5.9*10e-5M; assay type: functional; conditions: read-out: ED50 (the source's name)
MCF7 [33] = assay: In vitro cytotoxicity against human breast carcinoma cell line MCF-7 at 5.6*10e-5M; assay type: functional; conditions: read-out: ED50 (the source's name)
SK-MEL-5 [34] = assay: In vitro cytotoxicity against human melanoma, metastatic to auxiliary node (SK-MEL-5) at 2.6*10e-5M; assay type: functional; conditions: read-out: ED50 (the source's name)
Malme-3M [35] = assay: In vitro cytotoxicity against human melanoma, metastatic to lung using MTT assay (MALME-3M) at 4.7*10e-5M; assay type: functional; conditions: read-out: ED50 (the source's name)
P388 = assay: In vitro cytotoxicity against P388 cell line; 10e-7-10e-9 ug/mL; assay type: functional; conditions: Mus musculus, read-out: ED50 (the source's name)

## CCCCCCCC[C@H]1CC[C@@]2(C)C3CC[C@@]4(C)Cc5nc6c(nc5C[C@]4(C)[C@@]3(C)CC[C@]12C)C[C@]1(C)CCC2[C@](C)(CC[C@]3(C)[C@@H](CCCCCCCC)CC[C@@]23C)[C@@]1(C)C6 (stereo partly specified)
A549 [1]
  EC50: > 100 µg/mL
MCF7 [2]
  EC50: > 100 µg/mL
Malme-3M [3]
  EC50: > 100 µg/mL
SK-MEL-5 [4]
  EC50: > 100 µg/mL
HT-29 [5]
  EC50: > 100 µg/mL

## C[C@@]12CCC3[C@](C)(CC[C@]4(C)[C@@H](O)CC[C@@]34C)[C@@]1(C)Cc1nc3c(nc1C2)C(N=[N+]=[N-])[C@@]1(C)[C@@H](CCC2[C@]1(C)CC[C@]1(C)[C@@H](O)CC[C@@]21C)C3 (stereo partly specified)
A549 [6]
  EC50: 22 µg/mL (≈ 32.2 µM)
HT-29 [7]
  EC50: 35 µg/mL (≈ 51.2 µM)
MCF7 [8]
  EC50: 27 µg/mL (≈ 39.5 µM)
SK-MEL-5 [9]
  EC50: 31 µg/mL (≈ 45.3 µM)
Malme-3M [10]; read-out: ED50
  EC50: 42 µg/mL (≈ 61.4 µM)

## C[C@H]1CC[C@@]2(OC1)O[C@H]1C[C@@]3(C)C4CC[C@@]5(C)Cc6nc7c(nc6C[C@]5(C)C4=C(O)C(=O)[C@]3(C)[C@H]1[C@@H]2C)C[C@]1(C)CCC2C(=C(O)C(=O)[C@]3(C)[C@@H]4[C@H](C[C@@]23C)O[C@]2(CC[C@H](C)CO2)[C@H]4C)[C@@]1(C)C7 (stereo partly specified)
A549 [1]
  EC50: > 100 µg/mL
HT-29 [11]
  EC50: 26 µg/mL (≈ 27.9 µM)
MCF7 [2]
  EC50: > 100 µg/mL
Malme-3M [12]
  EC50: 53 µg/mL (≈ 56.8 µM)
SK-MEL-5 [13]
  EC50: 28 µg/mL (≈ 30 µM)

## C[C@@]12CCC3[C@](C)(CC[C@]4(C)[C@@H](O)CC[C@@]34C)[C@@]1(C)Cc1nc3c(nc1C2)C[C@@]1(C)[C@@](C)(CCC2[C@]1(C)CC[C@]1(C)[C@@H](O)CC[C@@]21C)C3 (stereo partly specified)
A549 [14]
  EC50: 35 µg/mL (≈ 53.3 µM)
NRK [15]
  Cell kill: 100%
NRK [16]
  Cell kill: 100%
HT-29 [17]
  EC50: 7 µg/mL (≈ 10.7 µM)
NRK [18]
  Cell kill: 100%
NRK [19]
  Cell kill: 100%
MCF7 [20]
  EC50: 28 µg/mL (≈ 42.6 µM)
Mus musculus [21]
  inhibition in vivo at 150 mg/kg/day: 59%
Mus musculus [22]
  inhibition in vivo at 150 mg/kg/day: 51%
Mus musculus [23]
  inhibition in vivo at 75 mg/kg/day: 28%
Mus musculus [24]
  MTD: 150 mg/kg/day
NRKE [25]
  Cell kill: 100%
NRKE [26]
  Cell kill: 100%
SK-MEL-5 [27]
  EC50: 36 µg/mL (≈ 54.8 µM)
Malme-3M [10]; read-out: ED50 (the source's name)
  EC50: 39 µg/mL (≈ 59.4 µM)

## C[C@@]12CCC3[C@](C)(CC[C@]4(C)C(=O)CC[C@@]34C)[C@@]1(C)Cc1nc3c(nc1C2)C[C@@]1(C)[C@@](C)(CCC2[C@]1(C)CC[C@]1(C)C(=O)CC[C@@]21C)C3 (stereo partly specified)
A549 [28]
  EC50: 42 µg/mL (≈ 64.3 µM)
HT-29 [29]
  EC50: 94 µg/mL (≈ 144 µM)
MCF7 [30]
  EC50: 46 µg/mL (≈ 70.4 µM)
Malme-3M [3]
  EC50: > 100 µg/mL
SK-MEL-5 [4]
  EC50: > 100 µg/mL

## C[C@@]12CCC3[C@](C)(CC[C@]4(C)C5(CC[C@@]34C)OCCO5)[C@@]1(C)Cc1nc3c(nc1C2)C[C@@]1(C)[C@@](C)(CCC2[C@]1(C)CC[C@]1(C)C4(CC[C@@]21C)OCCO4)C3 (stereo partly specified)
A549 [31]
  EC50: 33 µg/mL (≈ 44.5 µM)
HT-29 [32]
  EC50: 39 µg/mL (≈ 52.6 µM)
MCF7 [33]
  EC50: 37 µg/mL (≈ 49.9 µM)
SK-MEL-5 [34]
  EC50: 17 µg/mL (≈ 22.9 µM)
Malme-3M [35]
  EC50: 31 µg/mL (≈ 41.8 µM)

## C[C@@H]1[C@]2(O[C@H]3C=C4C5CC[C@@]6(C)Cc7nc8c(nc7C[C@]6(C)[C@@]5(C)C[C@@H](O)[C@]4(C)[C@]31O)C[C@]1(C)CCC3C4=CC[C@@H]5[C@H](C)[C@@]6(OC[C@]45C(=O)C[C@@H]3[C@@]1(C)C8)OC(C)(C)C[C@H]6O)O[C@](C)(CO)C[C@H]2O (stereo partly specified) [CEPHALOSATIN]
P388
  EC50: 0.001 ng/mL (≈ 1.05e-06 µM)
